According to patent US20160106719A1, “Transplantation Adjuvant in Cell Therapy Using Neural Progenitor Cells” (SUMITOMO DAINIPPON PHARMA CO., LTD., priority 2013, published 2016):

Assays:
[1] = tested on: re-aggregated PSA-NCAM+ cells (neural progenitor cells derived from mouse iPS cell line 440A3); experiment: In vitro differentiation of mouse iPS cell-derived neural progenitor cells into dopaminergic neurons (immunocytochemistry for marker molecules); assay type: cell-based
Description: DMEM contained 1% fetal bovine serum (FBS), 5% knockout serum replacement (KSR; manufactured by Invitrogen), 0.1 mM non-essential amino acids, 1 mM sodium pyruvate, 0.1 mM 2-mercaptoethanol (2-ME; manufactured by Invitrogen), 2000 U/ml leukemia inhibitory factor (manufactured by Invitrogen), and 1.5 μg/ml puromycin. In order to differentiate and induce the iPS cells into neural cells, serum-free floating culture of embryoid bodies-like aggregates (SFEB) was employed. Specifically, aggregates of the 440A3 cells were separated into individual cells by using 0.25% trypsin/1 mM EDTA (ethylenediaminetetraacetic acid), and the resultant cells were seeded in a 96-well low adhesion plate (product name: Lipidure-Coat Plate A-US96, manufactured by NOF Corporation) at a concentration (cell density) of 3000 cells/well. Thereafter, re-aggregation of the 440A3 cells was induced in a differentiation medium containing GMEM (Glasgow Minimum Essential Medium), 5% KSR, 0.1 mM non-essential amino acids, 1 mM sodium pyruvate and 0.1 mM 2-ME, and this day was defined as day 0 (FIG. 1). During this differentiation process, various factors were added to the differentiation medium for inducing midbrain dopaminergic phenotypes as illustrated in FIG. 1. Specifically, from day 3 to day 7 after starting the SFEB, 20 ng/ml of mouse FGF-8b (manufactured by R & D Systems) was added, from day 4 to day 7 after starting the SFEB, 10 ng/ml of recombinant mouse sonic hedgehog (C25I1) N-terminus (manufactured by R & D Systems) was added, and on and after day 7 after starting the SFEB, 1% N-2 supplement (manufactured by Gibco) and 200 nM ascorbic acid were added. The KSR was removed from the differentiation medium on day 7 after starting the SFEB.
On day 9 after starting the SFEB, the 440A3 cells were washed with phosphate buffered saline (PBS(-)) twice. Thereafter, the 440A3 cells were dissociated into single cells by five-minute incubation performed at 37° C. by using Accumax (manufactured by Innovate Cell Technologies, product name). The cells were collected with a FACS buffer. The FACS buffer was constituted by PBS(-) containing 2% FBS, 20 mM D-glucose and 1% penicillin/streptomycin (P/S, manufactured by Invitrogen). The collected cells were mechanically dissociated into a single cell suspension by a gentle pipetting operation.
Next, the resultant cells were incubated with a mouse anti-PSA-NCAM antibody (dilution rate of 1:200, manufactured by Millipore) at 4° C. for about 30 minutes. Thereafter, a washing operation using a centrifuge was performed twice, and the resultant cells were further incubated for 30 minutes with a secondary antibody of a donkey anti-mouse IgG (dilution rate of 1:400, manufactured by Invitrogen) labeled with AlexaFluor 594. Dead cells and cell debris were excluded by using 7-aminoactinomycin-D (7-AAD, manufactured by BD Pharmigen) stain. The remaining living cells were suspended again at a final concentration (cell density) of 1×10^7 cells/ml. Cell sorting was conducted by using a FACSAria II cell sorter (manufactured by Becton Dickinson And Company) equipped with a 488 nm argon laser, a 633 nm helium-neon laser, a 100 μm nozzle and a FACSDiva software program. A PSA-NCAM positive rate was determined on the basis of a negative control not using a primary antibody.
After the cell sorting, in order to induce the reaggregation of the cells, a PSA-NCAM^+ cell group was seeded in a DMEM/F12 medium (manufactured by Wako Pure Chemical Industries, Ltd.) in a 96-well plate at a concentration (cell density) of 20000 cells/well. The DMEM/F12 medium contained 1% N-2 supplement, 200 nM ascorbic acid, 2% B27 supplement (manufactured by Invitrogen), 0.5 mM L-glutamine and 1% P/S. In order to prevent apoptosis, a ROCK inhibitor, Y-27632 (manufactured by Wako Pure Chemical Industries, Ltd.), was used at a concentration of 30 μM during the cell sorting process and the following overnight cultivation. […]

[2] = tested on: TH+ neurons derived from mouse iPS cells; experiment: In vitro survival of TH+ neurons with caspase 3 expression as index of apoptosis; assay type: cell-based; conditions: control 18.0±5.9%; no significant difference among four groups
Description: After the cell sorting, in order to induce the reaggregation of the cells, a PSA-NCAM^+ cell group was seeded in a DMEM/F12 medium (manufactured by Wako Pure Chemical Industries, Ltd.) in a 96-well plate at a concentration (cell density) of 20000 cells/well. The DMEM/F12 medium contained 1% N-2 supplement, 200 nM ascorbic acid, 2% B27 supplement (manufactured by Invitrogen), 0.5 mM L-glutamine and 1% P/S. In order to prevent apoptosis, a ROCK inhibitor, Y-27632 (manufactured by Wako Pure Chemical Industries, Ltd.), was used at a concentration of 30 μM during the cell sorting process and the following overnight cultivation. On day 10 after starting the SFEB, any one of valproic acid (VPA) (manufactured by Sigma-Aldrich), zonisamide (ZNS) sodium salt (manufactured by Sumitomo Dainippon Pharma Co., Ltd.), 17β estradiol (E2) (manufactured by Sigma-Aldrich), a glial cell line derived neurotrophic factor (GDNF) (manufactured by R & D Systems) and PBS(-) was added to the medium for 4 days. Each of VPA, ZNS and E2 was used at three different concentrations. Specifically, the concentration of VPA was 0.01 mM, 0.1 mM or 1 mM, the concentration of ZNS was 1 μM, 10 μM or 100 μM, and the concentration of E2 was 1 nM, 10 nM or 100 nM. GDNF was added at a concentration of […] to be used as a positive control. […]

[3] = tested on: grafts derived from human iPS cells; experiment: Transplantation experiment of human iPS cell-derived dopamine neural progenitor cells into striatum of SCID rats (immunohistochemistry of grafts); assay type: in vivo; conditions: ZNS at a high dose i.p., four weeks after transplantation
Description: Twelve-week-old SCID rats (produced by Institute of Laboratory Animals, Graduate School of Medicine, Kyoto University) were handled in accordance with the Guidelines for Animal Experiments of Kyoto University. The SCID rats were anesthetized, and donor cells were transplanted by stereotaxic injection into striatums on both sides. Dopamine neural progenitor cells (2.7×10^5 cells on average) prepared from 1039A1 cell, that is, a human iPS cell line, were collected in 2 μl of PBS(-) so as to be used as the donor cells for the transplantation in each tract. To the PBS(-), […] was added at a final concentration of 30 μM. Thereafter, intraperitoneal injection of VPA (150 mg/kg/day or 600 mg/kg/day, which are sometimes designated respectively as a high dose and a low dose), ZNS sodium salt (30 mg/kg/day or 60 mg/kg/day, which are sometimes designated respectively as a high dose and a low dose), or a saline was conducted from two days before transplanting the donor cells until a day of necropsy. Four weeks after the transplantation of the donor cells, the brains of the SCID rats were washed and fixed by intracardially perfusing 4% paraformaldehyde under deep anesthesia. On the day of necropsy, a blood sample was collected from each SCID rat one hour after the final injection of the test compound, and the blood concentration of the drug (test compound) was measured.
In an in vitro experiment, a cell aggregate treated with any of the above-described test compounds on day 14 after starting the SFEB was fixed with 4% paraformaldehyde. Thereafter, the fixed cell aggregate was frozen and sliced into thin sections each having a thickness of 10 μM by using a microtome for immunocytochemistry. On the other hand, in an in vivo experiment (transplantation experiment), the brain of a SD rat or a SCID rat was taken out after the transplantation experiment to be fixed again with 4% paraformaldehyde for 2 days. […]

[4] = tested on: grafts derived from mouse iPS cells; experiment: Transplantation experiment of mouse iPS cell-derived dopamine neural progenitor cells into striatum of SD rats (immunohistochemistry of grafts); assay type: in vivo; conditions: four weeks after transplantation
Description: Ten-week-old Sprague-Dawley rats (SD rats, available from Shimizu Laboratory Supplies Co., Ltd.) were handled in accordance with the Guidelines for Animal Experiments of Kyoto University. Each SD rat was anesthetized, and donor cells were transplanted by stereotaxic injection into striatums on both sides. Two cell aggregates (containing 3.1×10^5 cells on average) obtained on day 9 after starting the SFEB were collected in 1 μl of PBS(-) so as to be used as the donor cells for the transplantation in each tract. To the PBS(-), Y-27632 was added at a final concentration of […]. Thereafter, intraperitoneal injection of VPA (150 mg/kg/day), ZNS sodium salt (30 mg/kg/day), E2 (80 μM/kg/day) or a saline was conducted from two days before transplanting the donor cells until a day of necropsy. For immunosuppression, cyclosporin A (CsA, manufactured by Wako Pure Chemical Industries, Ltd.) was administered to all the SD rats at a daily dose of 10 mg/kg. Four weeks after the transplantation of the donor cells, the brains of the SD rats were washed and fixed by intracardially perfusing 4% paraformaldehyde under deep anesthesia. On the day of necropsy, a blood sample was collected from each SD rat one hour after the final injection of the test compound or CsA. Such a sample was sent to SRL, Inc. (Tokyo, Japan) where the blood concentration of the administered drug (test compound) was measured.
In an in vitro experiment, a cell aggregate treated with any of the above-described test compounds on day 14 after starting the SFEB was fixed with 4% paraformaldehyde. Thereafter, the fixed cell aggregate was frozen and sliced into thin sections each having a thickness of 10 μM by using a microtome for immunocytochemistry. On the other hand, in an in vivo experiment (transplantation experiment), the brain of a SD rat or a SCID rat was taken out after the transplantation experiment to be fixed again with 4% paraformaldehyde for 2 days. Thereafter, the fixed brain of the SD rat or SCID rat was cryopreserved in 30% sucrose for 3 days, frozen, and sliced into thin sections each having a thickness of 40 μM for immunohistochemistry. The frozen sections of the sphere (spherical cell mass) and the brain were subjected to a permeabilization and blocking treatment in PBS(-) for 1 hour at room temperature to be used as samples. The PBS(-) contained 0.3% Triton-X and 2% donkey serum. Thereafter, each of the sections was incubated overnight together with a primary antibody at 4° C. Primary antibodies used in this example are a rabbit anti-tyrosine hydroxylase antibody (dilution rate of 1:400, TH; manufactured by Millipore), a mouse anti-TH antibody (dilution rate of 1:200, manufactured by Millipore), a sheep anti-TH antibody (dilution rate of 1:400, manufactured by Millipore), a mouse anti-Tubβ3 antibody (dilution rate of 1:1000, Tuj1; manufactured by Covance Inc.), a rat anti-NURR1 antibody (dilution rate of 1:1000, KAN Research Institute, Inc., Kobe, Japan), a rabbit anti-Ki67 antibody (dilution rate of 1:1000, manufactured by Novocastra: NCL-Ki67p), a rabbit anti-caspase 3 antibody (dilution rate of 1:500, manufactured by Santa Cruz Biotechnology, Inc.), a rat anti-M2M6 antibody (dilution rate of 1:50, manufactured by Developmental Study Hybridoma Bank), a mouse anti-Nestin antibody (dilution rate of 1:50; manufactured by Millipore), a rabbit anti-Pitx3 antibody (dilution rate of 1:500; manufactured by Chemicon International Inc.), a goat […] antibody (dilution rate of 1:500, Foxa2; manufactured by Santa Cruz Biotechnology, Inc.), a mouse anti-human Nuclei antibody (dilution rate of 1:1000; manufactured by Millipore), and a mouse anti-NeuN antibody (dilution rate of 1:500, manufactured by Chemicon International Inc.). After washing with PBS (0.05% Tween-20) three times, the resultant sample was incubated with an Alexa Fluor-conjugated secondary antibody for 1 hour at room temperature. […]

[5] = ddA or ICI singly added to cells, vs control

C[C@H]1O[C@@H](n2cnc3c(N)ncnc32)C[C@@H]1O [ddA, 2,5-dideoxyadenosine]
ratios of increase in the TH+ cells ([1]; 100 μM ddA added to 0.1 mM VPA): remarkably reduced | ratio of TH+ cells [1, 5]: not changed as compared with that of the control

C[C@]12CC[C@@H]3c4ccc(O)cc4CC[C@H]3[C@@H]1CC[C@@H]2O [E2, 17β estradiol]
ratio of TH+ cells ([1]; E2 10 nM, day 10 to 14, control 5.2±1.1%): 12.2±2.3% | ratio of dopaminergic neurons undergoing apoptosis (TH+ neurons expressing caspase 3) [2]: low

NS(=O)(=O)Cc1noc2ccccc12 [ZNS, 1,2-benzisoxazole-3-methanesulfonamide]
ratio of TH+ cells that were FOXA2+ ([3]; control 76.3±9.7%): 91.8±6.2% | number of midbrain dopaminergic neurons (TH+ FOXA2+) in a graft ([3]; control 2297±1116 cells): 5889±1821 cells | number of TH+ cells in a graft ([3]; control 3026±1349 cells): 6480±2145 cells | ratio of the differentiation of the transplanted NPC into neurons (NeuN+) ([4]; ZNS sodium salt 30 mg/kg/day i.p., vs control): almost equivalent to that of a control | ratio of TH+ cells that were FOXA2+ ([4]; VPA 150 mg/kg/day or ZNS 30 mg/kg/day i.p., control 24.7±9.3%): 80.4±21.1% | number of midbrain dopaminergic neurons (TH+ FOXA2+) in a graft ([4]; VPA 150 mg/kg/day or ZNS 30 mg/kg/day i.p., control 97±76 cells): 835±540 cells

C[C@]12CC[C@@H]3c4ccc(O)cc4C[C@@H](CCCCCCCCC[S+]([O-])CCCC(F)(F)C(F)(F)F)[C@H]3[C@@H]1CC[C@@H]2O (stereo partly drawn) [ICI, ICI182780]
ratios of increase in the TH+ cells ([1]; 2 μM ICI added to 10 nM E2): remarkably reduced | ratio of TH+ cells [1, 5]: not changed as compared with that of the control
